Measured values published in US9388226B2, “Peptides modulating the activity of macrophages, useable for the treatment of rheumatoid arthritis” (Universite Paul Sabatier, priority 2006, dated 2016).
Non-standard residues stand in square brackets, D forms with d. No end group written: not given here. Cit = NC(=O)NCCC[C@H](N)C(=O)O

Legend:
[1] = test system: ACPAs in sera from patients suffering from RA; assay: Reactivity of fibrin-derived citrullinated peptides with sera from RA patients having ACPAs; format: binding, human; conditions: 20 sera from RA patients having detectable ACPAs
Source text: Among these peptides, those which bear immunodominant epitopes (recognized by a large number of sera from patients suffering from RA) are given in table 2. The 20 sera tested correspond to a series originating from patients suffering from RA having ACPAs detectable by means of multiple tests for detecting these autoantibodies and which, taken as a whole, make it possible to represent the heterogeneity of the specificity profiles encountered in the patients.

[2] = test system: ACPA binding to citrullinated human fibrinogen; assay: ELISA competition assay: inhibition of the reactivity of IgG ACPA+ with respect to citrullinated fibrinogen; conditions: IgG ACPA+ 16 μg/ml; competitor 0.006 to 1.56 mg/ml added 2 h before ELISA; FIG. 2
Protocol: 96-well microtitration plates (MaxiSorp, Nunc, VWR International, Fontenay sous Bois, France) are coated with citrullinated human fibrinogen (prepared as indicated in example 1) at a rate of 100 μl/well of a solution at 5 μg/ml in PBS, pH 7.4, overnight at 4° C. The plates are then saturated with a solution of PBS containing 2% of BSA (PBS-2% BSA) (180 μl/well). After this step, the IgG ACPA+ (prepared as indicated in example 1), diluted beforehand to 16 μg/ml in PBS-2% BSA in the presence or absence of increasing amounts of the competitor peptides α36-50cit38, 42 and/or β60-74cit60, 72, 74 (each at a concentration ranging from 0.006 to 1.56 mg/ml) added 2 h before the ELISA assay, are added. The concentration used for the IgG ACPA+ was chosen because it makes it possible to obtain an OD of between 1 and 1.5 in the absence of competitor peptide. Citrullinated or noncitrullinated fibrinogen (0.0002 to 1.56 mg/ml) and the noncitrullinated forms of the α36-50cit38, 42 and β60-74cit60, 72, 74 peptides (respectively referred to as α36-50 and β60-74) are used as control. The ACPA binding is then detected with peroxidase-labeled anti-human IgG goat IgGs (SouthernBiotech, Birmingham, Ala.) diluted to 1/9000 in PBS-2% BSA. All the incubations are carried out for 1 h at 4° C. and are followed by washes in PBS-0.1% Tween 20.
The results of this ELISA competition assay are illustrated in FIG. 2. The data are representative of 3 experiments carried out with two different preparations of IgG ACPA+. The results are expressed as degree of inhibition of the reactivity obtained in the absence of competitor peptide.

human macrophages = assay: Inhibition of the stimulation of human macrophages by ICs associating ACPAs and citrullinated fibrinogen, TNF-α in supernatants; format: cell-based; conditions: IgG ACPA+ 1.13 mg/ml; for TNFα level: citrullinated fibrinogen plates
Protocol: The reconstitution of ICs associating ACPAs and citrullinated fibrinogen is carried out by coating flat-bottomed 96-well culture plates (Nunclon delta, Nunc, Roskilde, Denmark), under sterile conditions, with human citrullinated fibrinogen at 10 μg/ml, added at a rate of 50 μl/well and incubated overnight at 4° C. The plates are subsequently saturated in PBS, pH 7.4, 2% BSA for 1 hour at 4° C. (180 μl/well). After 3 washes in PBS, pH 7.4, 0.1% Tween-20, the wells are incubated for 2 hours at 4° C. with 100 μl of IgG ACPA+ at various concentrations (ranging from 9 to 0.28 mg/ml) diluted in PBS containing 2% BSA and 2M NaCl. Negative controls are made up in the same way, using either noncitrullinated human fibrinogen as antigen coated at the bottom of the plate, or control IgGs as antibodies. Wells coated only with citrullinated or noncitrullinated human fibrinogen and saturated in PBS, pH 7.4, 2% BSA are also used as negative controls.
After 3 washes in PBS, pH 7.4, 0.1% Tween-20, then 3 washes in PBS, the macrophages are added at a rate of 50000 viable cells/well in a volume of 200 μl. After incubation for 24 hours at 37° C. under an atmosphere containing 5% CO2, the supernatants are recovered (160 μl/well) and are rapidly frozen at −20° C. until they are analyzed. The negative control for activation is carried out using macrophages in macrophage-SFM medium alone. Macrophages placed on aggregated IgGs immobilized at the bottom of the culture plates by passive adsorption (at a rate of 100 μl of a solution at 5 μg/ml per well), or placed in the presence of bacterial lipopolysaccharide (LPS, Escherichia coli 0.55:B5 at a final concentration of 0.5 μg/ml; Sigma-Aldrich Chimie), are used as controls for the ability of the macrophages to respond to a stimulus inducing TNF-α synthesis.
An ELISA assay kit for human TNF-α, comprising a capture antibody, a detection antibody and recombinant human TNF-α for making up a calibration range of 7.8 to 500 pg/ml, was used to assay this cytokine in the culture supernatants (Human TNF-alpha BD OptEIA™ ELISA et, BD Biosciences Pharmingen, Pont-de-Claix, France).
The preparation and the stimulation of the macrophages are carried out exactly under the conditions described in example 1, except for the fact that the reconstitution of ICs is carried out with IgG ACPA+ diluted to 1.13 mg/ml in PBS containing 2M of NaCl and 2% of BSA in the presence or absence of the competitor peptide β60-74cit60, 72, 74 at two concentrations (0.8 and 4 mg/ml) added 2 h before the incubation with the citrullinated fibrinogen immobilized at the bottom of the culture plates. Competitions with citrullinated or noncitrullinated fibrinogen (0.4 mg/ml) and also with the noncitrullinated peptide β60-74 (0.8 and 4 mg/ml), are also carried out as control.

Row | percentage inhibition of the ACPA binding to the citrullinated fibrinogen, plateau value [2] | Substance | NUMBER OF REACTIVE SERA OUT OF THE 20 TESTED [1] | also measured
1 | approximately 15% | GPXVVEXHQSACKDS (GP[Cit]VVE[Cit]HQSACKDS) [α36-50cit38, 42, fibrinogen α-chain derived citrullinated peptide, X = citrullyl residue] | 12 | 
2 |  | SGIGTLDGFXHXHPD (SGIGTLDGF[Cit]H[Cit]HPD) [α501-515cit510, 512, fibrinogen α-chain derived citrullinated peptide, X = citrullyl residue] | 9 | 
3 |  | VDIDIKIXSCXGSCS (VDIDIKI[Cit]SC[Cit]GSCS; cysteine pairing not given here) [α171-185cit178, 181, fibrinogen α-chain derived citrullinated peptide, X = citrullyl residue] | 9 | 
4 |  | XGHAKSXPVXGIHTS ([Cit]GHAKS[Cit]PV[Cit]GIHTS) [α621-635cit621, 627, 630, fibrinogen α-chain derived citrullinated peptide, X = citrullyl residue] | 10 | 
5 | approximately 60% | XPAPPPISGGGYXAX ([Cit]PAPPPISGGGY[Cit]A[Cit]-NH2) [β60-74cit60, 72, 74, fibrinogen β-chain derived citrullinated peptide, X = citrullyl residue] | 14 | TNFα level (human macrophages; competitor peptide 0.8 mg/ml): approximately 40 pg/ml; TNFα level (human macrophages; competitor peptide 4 mg/ml): less than 20 pg/ml; effect on TNF-α production in response to the ICs (in words) (human macrophages; competitor 0.8 and 4 mg/ml (peptide)): dose-dependent inhibition
6 | approximately 80% | citrullinated fibrinogen: purified human fibrinogen incubated with rabbit skeletal muscle peptidylarginine deiminase |  | TNFα level (human macrophages; fibrinogen competitor 0.4 mg/ml): approximately 20 pg/ml
